Experimental data as given in PMC6120666 (The EMBO Journal, 2018).

What was measured:
[1] = tested on: C57Bl6/J mice; experiment: Inhibition of MDP-elicited TNF release in vivo; conditions: 10 mg/kg i.p. 30 min before MDP 100 μg/mouse i.p., blood after 4 h
Procedure: Female 6‐ to 8‐week‐old C57Bl6/J mice (Jackson labs) were administered with the compounds i.p. 30 min prior to the i.p. injections of MDP as previously described (Nachbur et al, 2015). After 4 h, blood was collected by cardiac puncture. 100 μl of serum (diluted twofold) per animal was analyzed using anti‐mouse TNF ELISA (ThermoFisher Scientific).
All mouse experiments were approved by the Tufts University Committee on the Use and Care of Animals and performed according to accepted veterinary standards. Female 6-8-week-old C57Bl6/J mice (Jackson labs) were used for the experiments. Experiments were performed as previously described (Nachbur et al., 2015). Tested compounds were formulated in 6% Captisol formulation, pH 4.0 (100 μl/mouse, 10 mg/kg, Ligand Pharmaceuticals, San Diego, CA). MDP (Bachem, King of Prussia, PA) was dissolved in saline (100 μl/mouse, 100 μg/mouse). Mice were administered with the drugs i.p. 30 min prior to the i.p. injections of MDP. After 4 h, blood was collected by cardiac puncture.
100 μl of serum (diluted 2-fold) per animal was analyzed using anti-mouse TNF ELISA (ThermoFisher […]
Expression and purification of RIPK2 for X-ray crystallography […]

[2] = target: T1, recombinant RIPK1 (Homo sapiens, UniProt Q13546); experiment: RIPK1 ADPGlo kinase assay; format: biochemical; conditions: concentrations up to 1 µM
T1 construct: made in house
T1 sequence (Q13546 whole entry, species assumed): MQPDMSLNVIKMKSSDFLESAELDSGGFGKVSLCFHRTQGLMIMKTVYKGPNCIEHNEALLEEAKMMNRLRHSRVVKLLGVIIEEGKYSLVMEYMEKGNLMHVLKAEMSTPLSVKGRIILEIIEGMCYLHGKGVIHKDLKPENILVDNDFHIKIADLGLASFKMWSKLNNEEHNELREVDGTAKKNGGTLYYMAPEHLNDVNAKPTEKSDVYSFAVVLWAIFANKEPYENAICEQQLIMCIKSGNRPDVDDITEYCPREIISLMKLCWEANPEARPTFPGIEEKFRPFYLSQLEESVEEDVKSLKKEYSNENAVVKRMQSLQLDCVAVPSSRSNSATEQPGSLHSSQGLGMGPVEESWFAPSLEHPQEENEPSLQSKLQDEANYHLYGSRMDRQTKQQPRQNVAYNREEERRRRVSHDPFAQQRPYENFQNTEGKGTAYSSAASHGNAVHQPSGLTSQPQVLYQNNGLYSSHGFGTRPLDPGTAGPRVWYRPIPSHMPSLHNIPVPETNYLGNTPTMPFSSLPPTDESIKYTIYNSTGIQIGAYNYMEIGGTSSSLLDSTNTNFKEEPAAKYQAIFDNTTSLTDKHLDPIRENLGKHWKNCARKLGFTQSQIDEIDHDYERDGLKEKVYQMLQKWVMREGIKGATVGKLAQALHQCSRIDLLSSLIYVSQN
Procedure: Cell viability was determined using CellTiter‐Glo assay (Promega). […] Kinase activities were determined using ADPGlo assay (Promega). • Structure of the active conformation of RIPK2 kinase domain in complex with AMP‐PNP (PDB ID: 5AR3). Figure depicts locations of the adenine and deep pockets. […] Key residues discussed in the text are shown as sticks (Lys/Glu Glu‐in bond—bottom left, catalytic Asp residues (Asp146/Asp164)—bottom right, R‐spine—right). P‐loop of CSLP18 structure is shown in yellow. Structured segment of activation segment (AS) observed in active conformation structures is shown in red. • Structure of RIPK2 kinase domain (gray ribbons) in complex with CSLP18 (orange) (PDB ID 6FU5). Sticks are shown for residues in the vicinity of the cavity surrounding the key inhibitor position R1. A 2Fo‐Fc electron density map contoured at 1 sigma is shown for the inhibitor and the residues lining the key region around inhibitor R^1 position. • Molecular docking model of RIPK2 kinase domain in complex with CSLP37 (yellow) based on RIPK2/CSLP18 structure (Fig 3D). […] Data information: Data in (A–C, G) represent the mean ± SEM of three independent experiments. **P < 0.01. Two‐way ANOVA was used to determine statistical significance. […]

Row | Structure (SMILES) | MDP-elicited serum TNF levels [1] | inhibitory activity against RIPK1 [2]
1 | CCCS(=O)(=O)Nc1cc(-c2cc(-c3ccc(N4CCNCC4)cc3)cnc2N)cc(F)c1OC [CSLP37] | potently reduced | no inhibitory activity
2 | CCCS(=O)(=O)Nc1cc(-c2cc(-c3ccc(N4CCNCC4)cc3)cnc2N)cc(OC)c1OC [CSLP43] |  | no inhibitory activity
3 | Cc1ccc(-c2nn(C(C)(C)CNC(=O)c3ccncc3)c3ncnc(N)c23)cc1 [WEHI‐345, reference compound] | partial reduction | 
